From patent US20210369853A1, “TARGETED PROTEASE DEGRADATION PLATFORM” (EUBULUS BIOTHERAPEUTICS INC., priority 2018, published 2021)
pEC50: −log10 of the molar value.

Key:
[1] = tested on: Human Colon Cancer HCT-116; assay: Cell proliferation experiment (Alarm blue, 72 h, EC50); format: cell-based; conditions: Homo sapiens, HCT-116; HCT116 cells
Method in brief: (§1)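 Growth inhibition over 72 h. Cells were cultured in standard media and passaged at least twice before plating, then treated with a 5-fold compound gradient. EC50 came from Alamar blue fluorescence.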

[2] = tested on: Human Monocytic Leukemia MV4-11; assay: as above; format: cell-based
Method in brief: as §1

[3] = Homo sapiens, MV4-11, MV4;11 cells

Cc1sc2c(c1C)C(c1ccc(Cl)cc1)=N[C@@H](CC(=O)NCCCNCCCCC(=O)Nc1cccc3c1CN(C1CCC(=O)NC1=O)C3=O)c1nnc(C)n1-2 (stereo partly drawn) [UB-180641]
pEC50 [1]: < 6.00 | pEC50 [2, 3]: 6.00 to 7.00

O=C1CCC(N2Cc3c(NC(=O)COCCCCNC(=O)[C@]4(Cc5cccc(Nc6nccs6)n5)CC[C@@H](Oc5cccc(Cl)c5F)CC4)cccc3C2=O)C(=O)N1 (stereo partly drawn) [UB-180586]
pEC50 [1]: < 6.00 | pEC50 [2, 3]: < 6.00

O=C1CCC(N2Cc3c(NC(=O)COCCOCCOCCOCCNC(=O)[C@]4(Cc5cccc(Nc6nccs6)n5)CC[C@@H](Oc5cccc(Cl)c5F)CC4)cccc3C2=O)C(=O)N1 (stereo partly drawn) [UB-180582]
pEC50 [1]: < 6.00 | pEC50 [2, 3]: 7.00 to 8.00

Cc1sc2c(c1C)C(c1ccc(Cl)cc1)=N[C@@H](CC(=O)NCCCNCCCC(=O)Nc1cccc3c1CN(C1CCC(=O)NC1=O)C3=O)c1nnc(C)n1-2 (stereo partly drawn) [UB-180640]
pEC50 [1]: < 6.00 | pEC50 [2, 3]: 6.00 to 7.00

O=C1CCC(N2Cc3c(NC(=O)COCCCCNC(=O)c4ccc(Nc5ncc6c(n5)-c5ccc(Cl)cc5C(c5c(F)cccc5F)=NC6)cc4)cccc3C2=O)C(=O)N1 (stereo not drawn) [UB-180503]
pEC50 [1]: 6.00 to 7.00 | pEC50 [2, 3]: 6.00 to 7.00

O=C1CCC(N2Cc3c(NC(=O)CCOCCCOCCOCCNC(=O)[C@]4(Cc5cccc(Nc6nccs6)n5)CC[C@@H](Oc5cccc(Cl)c5F)CC4)cccc3C2=O)C(=O)N1 (stereo partly drawn) [UB-180611]
pEC50 [1]: < 6.00 | pEC50 [2, 3]: 7.00 to 8.00

O=C1CCC(N2Cc3c(NC(=O)COCCNC(=O)c4ccc(Nc5ncc6c(n5)-c5ccc(Cl)cc5C(c5c(F)cccc5F)=NC6)cc4)cccc3C2=O)C(=O)N1 (stereo not drawn) [UB-180509]
pEC50 [1]: < 6.00 | pEC50 [2, 3]: < 6.00

O=C1CCC(N2Cc3c(NC(=O)CCOCCOCCNC(=O)[C@]4(Cc5cccc(Nc6nccs6)n5)CC[C@@H](Oc5cccc(Cl)c5F)CC4)cccc3C2=O)C(=O)N1 (stereo partly drawn) [UB-180590]
pEC50 [1]: < 6.00 | pEC50 [2, 3]: < 6.00

O=C1CCC(N2Cc3c(NC(=O)COCCOCCOCCOCCNC(=O)c4ccc(Nc5ncc6c(n5)-c5ccc(Cl)cc5C(c5c(F)cccc5F)=NC6)cc4)cccc3C2=O)C(=O)N1 (stereo not drawn) [UB-180534]
pEC50 [1]: < 6.00 | pEC50 [2, 3]: 7.00 to 8.00

O=C1CCC(N2Cc3c(NC(=O)CCCNC(=O)[C@]4(Cc5cccc(Nc6nccs6)n5)CC[C@@H](Oc5cccc(Cl)c5F)CC4)cccc3C2=O)C(=O)N1 (stereo partly drawn) [UB-180574]
pEC50 [1]: < 6.00 | pEC50 [2, 3]: < 6.00

O=C1CCC(N2Cc3c(NC(=O)COCCNC(=O)[C@]4(Cc5cccc(Nc6nccs6)n5)CC[C@@H](Oc5cccc(Cl)c5F)CC4)cccc3C2=O)C(=O)N1 (stereo partly drawn) [UB-180577]
pEC50 [1]: < 6.00 | pEC50 [2, 3]: < 6.00

Cc1sc2c(c1C)C(c1ccc(Cl)cc1)=N[C@@H](CC(=O)NCCCNCCCCCCC(=O)Nc1cccc3c1CN(C1CCC(=O)NC1=O)C3=O)c1nnc(C)n1-2 (stereo partly drawn) [UB-180629]
pEC50 [1]: < 6.00 | pEC50 [2, 3]: 6.00 to 7.00

O=C1CCC(N2Cc3c(NC(=O)COCCOCCOCCNC(=O)[C@]4(Cc5cccc(Nc6nccs6)n5)CC[C@@H](Oc5cccc(Cl)c5F)CC4)cccc3C2=O)C(=O)N1 (stereo partly drawn) [UB-180573]
pEC50 [1]: < 6.00 | pEC50 [2, 3]: < 6.00

O=C1CCC(N2Cc3c(NC(=O)CCOCCOCCNC(=O)c4ccc(Nc5ncc6c(n5)-c5ccc(Cl)cc5C(c5c(F)cccc5F)=NC6)cc4)cccc3C2=O)C(=O)N1 (stereo not drawn) [UB-180504]
pEC50 [1]: 6.00 to 7.00 | pEC50 [2, 3]: 7.00 to 8.00

O=C1CCC(N2Cc3c(NC(=O)CCCNC(=O)c4ccc(Nc5ncc6c(n5)-c5ccc(Cl)cc5C(c5c(F)cccc5F)=NC6)cc4)cccc3C2=O)C(=O)N1 (stereo not drawn) [UB-180501]
pEC50 [1]: 6.00 to 7.00 | pEC50 [2, 3]: < 6.00

CC[C@@H]1C(=O)N(C)c2cnc(Nc3ccc(C(=O)NC4CCN(CCOCCN(CC)CC(=O)Nc5cccc6c5CN(C5CCC(=O)NC5=O)C6=O)CC4)cc3OC)nc2N1C1CCCC1 (stereo partly drawn) [UB-180828]
pEC50 [1]: 6.00 to 7.00 | pEC50 [2, 3]: > 8.00

O=C1CCC(N2Cc3c(NC(=O)CCOCCCOCCOCCNC(=O)c4ccc(Nc5ncc6c(n5)-c5ccc(Cl)cc5C(c5c(F)cccc5F)=NC6)cc4)cccc3C2=O)C(=O)N1 (stereo not drawn) [UB-180610]
pEC50 [1]: < 6.00 | pEC50 [2, 3]: 7.00 to 8.00

Cc1sc2c(c1C)C(c1ccc(Cl)cc1)=N[C@@H](CC(=O)NCCOCCOCCOCCNCCCC(=O)Nc1cccc3c1CN(C1CCC(=O)NC1=O)C3=O)c1nnc(C)n1-2 (stereo partly drawn) [UB-180648]
pEC50 [1]: < 6.00

O=C1CCC(N2Cc3c(NC(=O)COCCOCCNC(=O)c4ccc(Nc5ncc6c(n5)-c5ccc(Cl)cc5C(c5c(F)cccc5F)=NC6)cc4)cccc3C2=O)C(=O)N1 (stereo not drawn) [UB-180559]
pEC50 [1]: < 6.00 | pEC50 [2, 3]: 6.00 to 7.00

Cc1sc2c(c1C)C(c1ccc(Cl)cc1)=N[C@@H](CC(=O)NCCOCCOCCOCCNCCC(=O)Nc1cccc3c1CN(C1CCC(=O)NC1=O)C3=O)c1nnc(C)n1-2 (stereo partly drawn) [UB-180635]
pEC50 [1]: < 6.00

CC[C@@H]1C(=O)N(C)c2cnc(Nc3ccc(C(=O)NC4CCN(CCOCCNCC(=O)Nc5cccc6c5CN(C5CCC(=O)NC5=O)C6=O)CC4)cc3OC)nc2N1Cc1ccc(C)s1 (stereo partly drawn) [UB-180747]
pEC50 ([2]; MV4;11 cells): 7.00 to 8.00

CC[C@@H]1C(=O)N(C)c2cnc(Nc3ccc(C(=O)NCc4cn(CCNCC(=O)Nc5cccc6c5CN(C5CCC(=O)NC5=O)C6=O)nn4)cc3OC)nc2N1Cc1ccc(Br)cc1 (stereo partly drawn) [UB-180692]
pEC50 [2, 3]: 6.00 to 7.00

CC[C@@H]1C(=O)N(C)c2cnc(Nc3ccc(C(=O)NCCNCCCC(=O)Nc4cccc5c4CN(C4CCC(=O)NC4=O)C5=O)cc3OC)nc2N1C1CCCC1 (stereo partly drawn) [UB-180689]
pEC50 [2, 3]: 7.00 to 8.00

Cc1sc2c(c1C)C(c1ccc(Cl)cc1)=N[C@@H](CC(=O)NCCOCCNCCCC(=O)Nc1cccc3c1CN(C1CCC(=O)NC1=O)C3=O)c1nnc(C)n1-2 (stereo partly drawn) [UB-180656]
pEC50 [2, 3]: 6.00 to 7.00

O=C1CCC(N2Cc3c(NC(=O)COCCOCCOCCNCCOCCNC(=O)[C@]4(Cc5cccc(Nc6nccs6)n5)CC[C@@H](Oc5cccc(Cl)c5F)CC4)cccc3C2=O)C(=O)N1 (stereo partly drawn) [UB-180799]
pEC50 [2, 3]: 6.00 to 7.00

O=C1CCC(N2Cc3c(NC(=O)CCCCCNCCOCCOCCOCCNC(=O)[C@]4(Cc5cccc(Nc6nccs6)n5)CC[C@@H](Oc5cccc(Cl)c5F)CC4)cccc3C2=O)C(=O)N1 (stereo partly drawn) [UB-180771]
pEC50 [2, 3]: 6.00 to 7.00

O=C1CCC(N2Cc3c(NC(=O)CCNCCOCCOCCOCCOCCNC(=O)c4ccc(Nc5ncc6c(n5)-c5ccc(Cl)cc5C(c5c(F)cccc5F)=NC6)cc4)cccc3C2=O)C(=O)N1 (stereo not drawn) [UB-180807]
pEC50 [2, 3]: 6.00 to 7.00

O=C1CCC(N2Cc3c(NC(=O)COCCNCCN4CCC(NC(=O)c5ccc(Nc6ncc7c(n6)-c6ccc(Cl)cc6C(c6c(F)cccc6F)=NC7)cc5)CC4)cccc3C2=O)C(=O)N1 (stereo not drawn) [UB-180740]
pEC50 [2, 3]: 6.00 to 7.00

CC[C@@H]1C(=O)N(C)c2cnc(Nc3ccc(C(=O)NC4CCN(CCCCC(=O)Nc5cccc6c5CN(C5CCC(=O)NC5=O)C6=O)CC4)cc3OC)nc2N1C1CCCC1 (stereo partly drawn) [UB-180596]
pEC50 [2, 3]: 7.00 to 8.00

CC[C@@H]1C(=O)N(C)c2cnc(Nc3ccc(C(=O)NCCNCCC(=O)Nc4cccc5c4CN(C4CCC(=O)NC4=O)C5=O)cc3OC)nc2N1Cc1ccc(Br)cc1 (stereo partly drawn) [UB-180683]
pEC50 [2, 3]: < 6.00

Cc1ncsc1-c1ccc(CNC(=O)[C@@H]2C[C@@H](O)CN2C(=O)[C@@H](NC(=O)CCNCCOCCn2cc(CNC(=O)[C@]3(Cc4cccc(Nc5nccs5)n4)CC[C@@H](Oc4cccc(Cl)c4F)CC3)nn2)C(C)(C)C)cc1 [UB-180785]
pEC50 [2, 3]: < 6.00

Cc1ncsc1-c1ccc(CNC(=O)[C@@H]2C[C@@H](O)CN2C(=O)[C@@H](NC(=O)CCNC(=O)c2ccc(Nc3ncc4c(n3)-c3ccc(Cl)cc3C(c3c(F)cccc3F)=NC4)cc2)C(C)(C)C)cc1 [UB-180613]
pEC50 [2, 3]: 6.00 to 7.00

O=C1CCC(N2Cc3c(NC(=O)CNCCOCCN4CCN(CCNC(=O)c5ccc(Nc6ncc7c(n6)-c6ccc(Cl)cc6C(c6c(F)cccc6F)=NC7)cc5)CC4)cccc3C2=O)C(=O)N1 (stereo not drawn) [UB-180811]
pEC50 [2, 3]: 6.00 to 7.00

CC[C@@H]1C(=O)N(C)c2cnc(Nc3ccc(C(=O)NCCOCCNCC(=O)Nc4cccc5c4CN(C4CCC(=O)NC4=O)C5=O)cc3OC)nc2N1C1CCCC1 (stereo partly drawn) [UB-180705]
pEC50 [2, 3]: 7.00 to 8.00

Cc1ncsc1-c1ccc(CNC(=O)[C@@H]2C[C@@H](O)CN2C(=O)[C@@H](NC(=O)CCOCCCOCCOCCNC(=O)c2ccc(Nc3ncc4c(n3)-c3ccc(Cl)cc3C(c3c(F)cccc3F)=NC4)cc2)C(C)(C)C)cc1 [UB-180609]
pEC50 [2, 3]: 7.00 to 8.00

CC[C@@H]1C(=O)N(C)c2cnc(Nc3ccc(C(=O)NC4CCN(CCNCCCC(=O)Nc5cccc6c5CN(C5CCC(=O)NC5=O)C6=O)CC4)cc3OC)nc2N1C1CCCC1 (stereo partly drawn) [UB-180687]
pEC50 [2, 3]: 7.00 to 8.00

Cc1ncsc1-c1ccc(CNC(=O)[C@@H]2C[C@@H](O)CN2C(=O)[C@@H](NC(=O)CCNCCn2cc(COCCOCCOCCNC(=O)[C@]3(Cc4cccc(Nc5nccs5)n4)CC[C@@H](Oc4cccc(Cl)c4F)CC3)nn2)C(C)(C)C)cc1 [UB-180789]
pEC50 [2, 3]: < 6.00

CC[C@@H]1C(=O)N(C)c2cnc(Nc3ccc(C(=O)NC4CCN(CCOCCN(CC(=O)Nc5cccc6c5CN(C5CCC(=O)NC5=O)C6=O)C(N)=O)CC4)cc3OC)nc2N1C1CCCC1 (stereo partly drawn) [UB-180840]
pEC50 [2, 3]: 7.00 to 8.00

CC[C@@H]1c2c(C#N)ncn2-c2cnc(Nc3ccc(C(=O)NCc4cn(CCNCCC(=O)Nc5cccc6c5CN(C5CCC(=O)NC5=O)C6=O)nn4)cc3OC)nc2N1C1CCCC1 (stereo partly drawn) [UB-180723]
pEC50 [2, 3]: 6.00 to 7.00

CC[C@@H]1C(=O)N(C)c2cnc(Nc3ccc(C(=O)NCc4cn(CCNCCOCC(=O)Nc5cccc6c5CN(C5CCC(=O)NC5=O)C6=O)nn4)cc3OC)nc2N1Cc1cc(Cl)cs1 (stereo partly drawn) [UB-180763]
pEC50 [2, 3]: 7.00 to 8.00

CC[C@@H]1c2c(C#N)ncn2-c2cnc(Nc3ccc(C(=O)NCCCNc4cccc5c4C(=O)N(C4CCC(=O)NC4=O)C5=O)cc3OC)nc2N1C1CCCC1 (stereo partly drawn) [UB-180593]
pEC50 [2, 3]: 6.00 to 7.00

COc1cc(C(=O)NCCCNCCCCC(=O)Nc2cccc3c2CN(C2CCC(=O)NC2=O)C3=O)ccc1Nc1ncc2c(n1)N(Cc1ccc(Br)cc1)CC(C)(C)C(=O)N2C (stereo not drawn) [UB-180670]
pEC50 [2, 3]: 6.00 to 7.00

CC[C@@H]1c2c(C#N)ncn2-c2cnc(Nc3ccc(C(=O)NCCNc4cccc5c4C(=O)N(C4CCC(=O)NC4=O)C5=O)cc3OC)nc2N1C1CCCC1 (stereo partly drawn) [UB-180607]
pEC50 [2, 3]: 7.00 to 8.00

O=C1CCC(N2Cc3c(NC(=O)CCNCCOCCN4CCC(NC(=O)c5ccc(Nc6ncc7c(n6)-c6ccc(Cl)cc6C(c6c(F)cccc6F)=NC7)cc5)CC4)cccc3C2=O)C(=O)N1 (stereo not drawn) [UB-180775]
pEC50 [2, 3]: 6.00 to 7.00

Cc1ncsc1-c1ccc(CNC(=O)[C@@H]2C[C@@H](O)CN2C(=O)[C@@H](NC(=O)CCCNC(=O)[C@]2(Cc3cccc(Nc4nccs4)n3)CC[C@@H](Oc3cccc(Cl)c3F)CC2)C(C)(C)C)cc1 [UB-180583]
pEC50 [2, 3]: 6.00 to 7.00
